Test results reported in patent US20090247519A1, “AMINO-ETHYL-AMINO-ARYL (AEAA) COMPOUNDS AND THEIR USE” (priority 2006, published 2009).

Tests used:
[1] = tested on: PANC-1 cells; assay: MTT Assay (cell viability); assay type: cell-based, human; conditions: 5 μM, 48 hours
Description: The MTT (3-[4,5-dimethylthiazol-2-yl]-2,5-diphenyltetrazolium bromide) assay can be used to assess the effect of compounds on cell viability and proliferation and to determine whether a compound is cytotoxic. In living cells, the tetrazolium salt (MTT) is reduced to a coloured formazan product (1-[4,5-dimethylthiazol-2-yl]3,5-diphenylformazan), which can be quantified. The reduction of MTT is attributed to the mitochondrial function of cells.
PANC-1 cells were seeded into 96 well plates (1×10^4 cells/well in E4+10% FCS) and placed in an incubator at 37° C., 5% CO2 overnight. Cells were serum starved (E4+0.5% FCS) for 16 hours and then treated with an amino-ethyl-amino-aryl (AEAA) compound (XX-032) in full media for 1 hour prior to treatment with Neurotensin (50 nM) for a further 23 hours or 47 hours (in E4+0.5% FCS; total exposure to test compound was 24 hours or 48 hours; 37° C. 5% CO2). At the appropriate timepoint plates were removed from the incubator and the media was aspirated off. 50 μL per well of 2 mg/mL MTT solution was added and the plates were placed back into the incubator for 2.5 to 4 hours. After incubation, the plates were removed from the incubator and the MTT solution was completely aspirated off the cells. […] The plates were read in a 96 well plate reader at 562 nm (Lab Systems, Ascent Multiscan).

[2] = target: T1, PKD1 Ser916 phosphorylation in PANC-1 cells (Homo sapiens, UniProt Q15139); assay: Western Blot 916 (Phospho-Ser916 PKD1) Assay in PDBu-stimulated PANC-1 cells; assay type: cell-based; conditions: 2-30 μM compound for 1 hour, then 200 nM PDBu 10 minutes, densitometry of western blot, read-out: IC50 for inhibition of PDBu-stimulated PKD1 Ser916 phosphorylation
T1 construct: endogenous in cells; host or cells: PANC-1 (ATCC CRL-1469)
T1 sequence (Q15139 1-912): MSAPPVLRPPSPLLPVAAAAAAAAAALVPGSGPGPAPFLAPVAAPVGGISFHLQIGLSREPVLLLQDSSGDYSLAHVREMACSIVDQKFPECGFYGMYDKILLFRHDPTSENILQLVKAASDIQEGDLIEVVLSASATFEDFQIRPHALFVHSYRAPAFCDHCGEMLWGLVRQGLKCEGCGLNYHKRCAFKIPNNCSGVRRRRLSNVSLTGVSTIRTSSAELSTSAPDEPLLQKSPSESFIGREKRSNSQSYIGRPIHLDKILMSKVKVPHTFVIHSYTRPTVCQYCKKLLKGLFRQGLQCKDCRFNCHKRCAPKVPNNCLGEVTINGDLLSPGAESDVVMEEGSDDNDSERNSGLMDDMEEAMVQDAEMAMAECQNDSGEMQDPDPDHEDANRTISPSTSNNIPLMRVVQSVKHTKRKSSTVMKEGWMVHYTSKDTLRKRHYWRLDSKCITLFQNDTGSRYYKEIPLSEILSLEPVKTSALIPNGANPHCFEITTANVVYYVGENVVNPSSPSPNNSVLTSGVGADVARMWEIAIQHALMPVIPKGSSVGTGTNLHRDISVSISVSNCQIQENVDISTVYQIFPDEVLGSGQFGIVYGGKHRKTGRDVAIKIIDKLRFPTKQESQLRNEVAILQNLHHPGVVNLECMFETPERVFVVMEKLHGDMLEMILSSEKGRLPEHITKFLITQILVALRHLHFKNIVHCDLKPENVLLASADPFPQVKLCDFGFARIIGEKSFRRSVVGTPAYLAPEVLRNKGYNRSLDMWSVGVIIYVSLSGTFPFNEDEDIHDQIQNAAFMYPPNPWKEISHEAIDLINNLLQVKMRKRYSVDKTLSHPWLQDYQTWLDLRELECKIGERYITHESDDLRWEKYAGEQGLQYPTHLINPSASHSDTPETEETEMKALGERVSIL
Description: Western Blot 916 (Phospho-Ser916 PKD1) Assay
PANC-1 (ATCC CRL-1469) cells were seeded in 6 well plates. After overnight serum starvation of cells, cells were washed twice in 1 mL serum-free media per well, then treatments were added in serum-free media.
Cells were treated with 2 μM, 5 μM, 10 μM, or 30 μM of an amino-ethyl-amino-aryl (AEAA) compound or with 3 μM GF1 (2-[1-(3-Dimethylaminopropyl)-1H-indol-3-yl]-3-(1H-indol-3-yl)-maleimide, a PKC inhibitor), for comparison purposes, for 1 hour. Then, 200 nM PDBu (phorbol, 12,13-dibutyrate) was added to the wells for 10 minutes. Two wells were used per treatment.
Cells were then scraped into lysis buffer (40 μL per well), samples were homogenised, and protein concentration determined. […]
FIG. 4 is a photographic depiction of the western blot analysis of cell lysates of PANC-1 cells which were treated with increasing amounts (2, 5, 10, 30 μM) of an amino-ethyl-amino-aryl (AEAA) compound (XX-032). Cell lysates were analysed using an anti-PKD1 Antibody (middle panel), anti-phospho-PKD1 (Ser916) Antibody (top panel) and anti-tubulin antibody (lower panel).
The shown columns represent the percentage phosphorylation as measured by densitometry of phospho-PKD1 (Ser916) levels. The results were normalised to the measured PKD1 levels and expressed as a percentage of the level of phosphorylation in the PDBu-stimulated control.

[3] = tested on: PANC-1 cells; assay: Apoptosis Assay (Caspase-Glo caspase 3/7 activity); assay type: cell-based, human; conditions: 5 μM, 48 hours
Description: PANC-1 cells were seeded into 96 well plates (1×10^4 cells/well in E4+10% FCS) and placed in an incubator at 37° C., 5% CO2 overnight. Cells were serum starved (E4+0.5% FCS) for 16 hours and then treated with an amino-ethyl-amino-aryl (AEAA) compound in full media for 1 hour prior to treatment with Neurotensin (NT; 50 nM) for a further 23 hours or 47 hours (in E4+0.5% FCS; total exposure to test compound was 24 hours or 48 hours). Cells were then assayed for Caspase3/7 activity (Caspase-Glo; Promega) according to the manufacturer's instructions.
The Caspase-Glo assay is a homogenous luminescent assay that measures caspase 3 and 7 activities. […] When added to the cell samples, these reagents result in cell lysis, followed by caspase cleavage of the substrate and generation of a luminescent signal produced by luciferase, whereby the luminescence is proportional to the amount of caspase activity present. […]
The depicted columns show the change in viability or induction of apotosis in the presence of an amino-ethyl-amino-aryl (AEAA) compound (XX-032). Cell viability was measured by the MTT assay at two different time points (24 and 48 hours) and induction of apoptosis was measured by the caspase assay at two different time points (24 and 48 hours). The data are expressed as a percentage of the level in the corresponding control.

[4] = tested on: PANC-1 cells; assay: Neurotensin Proliferation Assay (BrdU incorporation, FACS); assay type: cell-based, human; conditions: 5 μM compound, 50 nM neurotensin
Description: Neurotensin Proliferation Assay
BrdU incorporation into PANC-1 cells was used to measure DNA synthesis and thus the level of cell proliferation. Cells were seeded in 10 cm^2 cell culture dishes in (1×10^6 cells/well in E4+10% FCS). After serum starvation (24 hours), cells were treated with an amino-ethyl-amino-aryl (AEAA) compound for 1 hour before addition of neurotensin (50 nM final concentration). Cells were then incubated for a further 23 hours before addition of BrdU (10 μM) for the final 1 hour. Samples were fixed using 70% ethanol and labelled with an anti-BrdU antibody (Becton Dickinson Cat No. 347580, Lot No. 13467) followed by a rabbit polyclonal anti-mouse-FITC antibody (DakoCytomation Cat No. F0313, Lot No. 00015066) and propidium iodide. Samples were then analysed by Fluorescent Activated Cell Sorting (FACS). The measured fluorescence was directly proportional to the incorporated BrdU.
FIG. 6 is a graphic representation of the results of the neurotensin proliferation assay. The columns in the graph represent the mean percentage of BrdU incorporation into PANC-1 cells as a measure for cell proliferation. The two left-hand columns represent the controls of DMSO (basal level of non-stimulated cell proliferation) and DMSO plus 50 nM neurotensin (stimulated cell proliferation). […]

[5] = target: T2, Murine PKD1 kinase domain (Mus musculus, UniProt Q62101, R683W); assay: PKD1 (Murine Kinase Domain) Enzyme Activity Assay (IMAP fluorescence polarisation); assay type: biochemical; conditions: 10 μM ATP, 10 point dose-response
T2 construct: hexahistidine (His6, pFastBac HTb leader) (N); made in house; host or cells: Sf9 insect cells, baculovirus (Bac-to-Bac HT)
T2 sequence (Q62101 with tags, fused parts or gaps R683W): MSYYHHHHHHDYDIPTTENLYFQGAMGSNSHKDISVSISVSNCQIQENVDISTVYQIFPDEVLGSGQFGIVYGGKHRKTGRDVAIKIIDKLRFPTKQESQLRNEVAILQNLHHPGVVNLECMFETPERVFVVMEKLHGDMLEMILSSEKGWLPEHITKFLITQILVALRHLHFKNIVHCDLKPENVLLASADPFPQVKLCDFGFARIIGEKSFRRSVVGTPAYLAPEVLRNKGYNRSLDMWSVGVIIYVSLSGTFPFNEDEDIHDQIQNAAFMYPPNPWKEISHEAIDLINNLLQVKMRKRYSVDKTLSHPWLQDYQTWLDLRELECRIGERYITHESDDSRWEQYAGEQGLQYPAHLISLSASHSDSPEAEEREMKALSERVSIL
Text: The DNA sequence corresponding to murine PKD1 (see FIG. 1) was inserted into pFastBAc Htb (Invitrogen, USA) at BamH1 and EcoR1 sites using standard molecular biology techniques.
The PKD1 described above was expressed as a hexahistidine tagged protein construct using a commercially available baculoviral expression system that induces protein production in insect cell culture (Bac-to-Bac® HT Baculovirus Expression System, Invitrogen). Protein was typically expressed by inoculating 1 L of sf9 cells with a genetically modified baculovirus containing the gene for the kinase domain of PKD1. Sf9 cells were obtained from ICR Ltd.
Purification of PKD1 was achieved by standard chromatographic procedures. Capture from crude centrifuged lysed cell supernatant was achieved using metal affinity chromatography (GE Healthcare Life Sciences, HiTrap Chelating chromatography column), and fractions showing PKD1 (as assessed by gel electrophoresis and western blot) were further purified by a single purification step. This was a performed using a mono Q anion exchange chromatography system (GE Healthcare Life Sciences, HiTrap HP Q column). […] This protocol describes the method for screening compounds as inhibitors of Protein Kinase D activity in a 384 well microplate format fluorescence polarisation IMAP assay performed using the Biomek FX. […]

IC50 [2] | IC50 [5] | SMILES | decrease in cell viability (MTT) [1] | increase in caspase 3/7 activity [3] | Neurotensin-stimulated PANC-1 proliferation (BrdU incorporation) [4]
~4 µM |  | CC[C@@H](N)CNc1nc(-c2cc(Cl)ccc2O)nc2ccccc12 [XX-032, 2-[4-((R)-2-Amino-butylamino)-quinazolin-2-yl]-4-chloro-phenol] | 2 fold | 5 fold | inhibited to basal levels
 | 0.016 µM | NCCNc1nc(-c2cc(Cl)ccc2O)nc2ccccc12 [XX-097, 2-[4-(2-Amino-ethylamino)-quinazolin-2-yl]-4-chloro-phenol] |  |  | 
